Laboratory results reported in patent US8003660B2, “Modulators of muscarinic receptors” (Vertex Pharmaceuticals Incorporated, priority 2006, dated 2011).

What was measured:
Assay type in all cases: cell-based
M3 muscarinic receptor = biological target: T1, M3 muscarinic receptor (Homo sapiens, UniProt P20309); assay: Functional mobilization of intracellular calcium (FLIPR) in CHO cells expressing M3; conditions: for M3 Activity: CHO cells expressing M3, FLIPR calcium assay; for Emax: CHO, 100% efficacy = maximum response obtained with the Carbachol control
T1 construct: expressed in transfected cells; host or cells: CHO (M3-CHO)
Outline: (§1)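 Recombinant CHO cells loaded with Fluo-3 AM or Calcium 3 dye in pH 7.4 buffer containing 1 mM probenecid, with 0.5% final DMSO. For agonism, compound is added directly. For inhibition, it is preincubated 15 min, or co-applied, before carbachol at EC80. FLIPR fluorescence (ex 488, em 540 nm) is recorded for 60 s.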

M4 muscarinic receptor = biological target: T2, M4 muscarinic receptor (Homo sapiens, UniProt P08173); assay: Functional mobilization of intracellular calcium (FLIPR) in CHO cells expressing M4; conditions: for M4 Activity: CHO cells expressing M4, FLIPR calcium assay; for Emax: CHO, 100% efficacy = maximum response obtained with the Carbachol control
T2 construct: expressed in transfected cells; host or cells: CHO (M4-CHO)
T2 sequence (P08173 1-479): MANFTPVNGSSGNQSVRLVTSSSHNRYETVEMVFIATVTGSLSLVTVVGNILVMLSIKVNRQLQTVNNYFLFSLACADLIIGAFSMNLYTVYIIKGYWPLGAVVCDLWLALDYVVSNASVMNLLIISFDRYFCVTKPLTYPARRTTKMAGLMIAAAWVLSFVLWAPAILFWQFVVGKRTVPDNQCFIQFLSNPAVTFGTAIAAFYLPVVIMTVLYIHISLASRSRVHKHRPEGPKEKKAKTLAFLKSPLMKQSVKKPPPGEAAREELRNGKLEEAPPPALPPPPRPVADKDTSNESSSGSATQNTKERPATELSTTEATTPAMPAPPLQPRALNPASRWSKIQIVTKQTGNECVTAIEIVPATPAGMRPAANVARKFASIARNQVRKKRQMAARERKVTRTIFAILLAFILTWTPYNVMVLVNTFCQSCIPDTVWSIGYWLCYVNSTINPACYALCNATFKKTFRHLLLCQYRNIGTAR
Outline: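 Read-out: FLIPR fluorescence (ex 488, em 540 nm) over 60 s. Recombinant CHO lines are dye-loaded (Fluo-3 AM or Calcium 3) with 1 mM probenecid. For antagonist mode, compound is pre-incubated 15 min, or co-applied, then carbachol is added at 3× EC80 per subtype.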

M2 muscarinic receptor = biological target: T3, M2 muscarinic receptor (Homo sapiens, UniProt P08172); assay: Functional mobilization of intracellular calcium (FLIPR) in CHO cells expressing M2; conditions: for M2 Activity: CHO cells expressing M2, FLIPR calcium assay; for Emax: CHO, 100% efficacy = maximum response obtained with the Carbachol control
T3 construct: expressed in transfected cells; host or cells: CHO (M2-CHO)
T3 sequence (P08172 1-466): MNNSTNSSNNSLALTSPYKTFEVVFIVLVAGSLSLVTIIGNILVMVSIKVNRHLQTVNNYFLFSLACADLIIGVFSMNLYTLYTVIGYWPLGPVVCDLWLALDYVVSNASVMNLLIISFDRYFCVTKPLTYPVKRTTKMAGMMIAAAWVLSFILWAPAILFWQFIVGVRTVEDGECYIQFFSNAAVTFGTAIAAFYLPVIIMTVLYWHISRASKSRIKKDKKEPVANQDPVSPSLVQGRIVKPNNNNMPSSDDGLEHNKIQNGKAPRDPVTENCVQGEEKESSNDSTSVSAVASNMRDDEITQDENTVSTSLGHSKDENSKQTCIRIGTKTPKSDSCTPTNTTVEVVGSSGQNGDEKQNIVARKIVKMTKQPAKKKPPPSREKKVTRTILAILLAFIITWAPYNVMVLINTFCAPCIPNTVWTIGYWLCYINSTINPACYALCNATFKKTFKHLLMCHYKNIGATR
Outline: as §1

M1 muscarinic receptor = biological target: T4, M1 muscarinic receptor (Homo sapiens, UniProt P11229); assay: Functional mobilization of intracellular calcium (FLIPR) in CHO cells expressing M1; conditions: for M1 Activity: CHO cells expressing M1, FLIPR calcium assay; for Emax: CHO, 100% efficacy = maximum response obtained with the Carbachol control
T4 construct: expressed in transfected cells; host or cells: CHO (M1-CHO)
T4 sequence (P11229 1-460): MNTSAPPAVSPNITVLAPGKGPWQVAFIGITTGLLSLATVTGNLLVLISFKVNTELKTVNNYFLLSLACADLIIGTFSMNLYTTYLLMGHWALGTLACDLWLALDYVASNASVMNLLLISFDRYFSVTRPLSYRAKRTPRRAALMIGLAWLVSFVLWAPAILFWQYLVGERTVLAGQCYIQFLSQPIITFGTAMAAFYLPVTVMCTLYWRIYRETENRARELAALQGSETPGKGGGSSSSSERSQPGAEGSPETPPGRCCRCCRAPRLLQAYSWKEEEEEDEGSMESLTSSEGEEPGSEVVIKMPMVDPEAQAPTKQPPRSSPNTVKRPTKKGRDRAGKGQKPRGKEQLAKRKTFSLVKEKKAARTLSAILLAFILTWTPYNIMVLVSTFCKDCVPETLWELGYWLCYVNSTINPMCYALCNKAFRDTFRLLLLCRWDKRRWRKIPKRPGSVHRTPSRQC
Outline: as §1

T1 sequence (P20309 whole entry): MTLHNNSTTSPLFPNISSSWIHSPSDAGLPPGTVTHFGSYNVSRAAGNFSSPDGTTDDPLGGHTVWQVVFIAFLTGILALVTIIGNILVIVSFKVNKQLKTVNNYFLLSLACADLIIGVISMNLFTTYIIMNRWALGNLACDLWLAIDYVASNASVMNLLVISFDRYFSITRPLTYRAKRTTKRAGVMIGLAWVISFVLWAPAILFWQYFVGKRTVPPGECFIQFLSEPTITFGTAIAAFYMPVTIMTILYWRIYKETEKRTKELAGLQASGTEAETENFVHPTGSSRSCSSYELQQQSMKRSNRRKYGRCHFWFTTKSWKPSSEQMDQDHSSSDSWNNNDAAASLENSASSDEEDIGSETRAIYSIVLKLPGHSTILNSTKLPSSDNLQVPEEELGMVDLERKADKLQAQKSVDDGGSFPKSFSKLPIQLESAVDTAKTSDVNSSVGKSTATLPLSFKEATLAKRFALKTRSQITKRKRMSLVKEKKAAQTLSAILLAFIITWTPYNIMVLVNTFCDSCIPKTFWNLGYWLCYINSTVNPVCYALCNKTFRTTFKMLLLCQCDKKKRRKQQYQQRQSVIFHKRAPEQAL

Row | Structure (SMILES) | M3 Activity (M3 muscarinic receptor) | Emax (M3 muscarinic receptor) [%] | M4 Activity (M4 muscarinic receptor) | Emax (M4 muscarinic receptor) [%] | M2 Activity (M2 muscarinic receptor) | Emax (M2 muscarinic receptor) [%] | M1 Activity (M1 muscarinic receptor) | Emax (M1 muscarinic receptor) [%]
1 | CCN(C(C)=O)[C@H]1CCC2(CCN(CCC(C)C)CC2)c2ccccc21 [compound 213] | + (activity was measured to be greater than 5.0 μM) | < 25 | +++ (activity was measured to be less than 2.0 μM) | 25 to 100 | + (activity was measured to be greater than 5.0 μM) | < 25 | ++ (activity was measured to be from 2.0 μM to 5.0 μM) | 25 to 100
2 | CC(C)(C)CCN1CCC2(CC[C@@H](NC(=O)C3CC3)c3ccc(F)cc32)CC1 [compound 214] | + (activity was measured to be greater than 5.0 μM) | < 25 | +++ (activity was measured to be less than 2.0 μM) | 25 to 100 | +++ (activity was measured to be less than 2.0 μM) | < 25 | +++ (activity was measured to be less than 2.0 μM) | 25 to 100
3 | COCCC(=O)N[C@H]1CCC2(CCN(CCC(C)(C)C)CC2)c2cc(F)ccc21 [compound 215] | + (activity was measured to be greater than 5.0 μM) | < 25 | +++ (activity was measured to be less than 2.0 μM) | 25 to 100 | +++ (activity was measured to be less than 2.0 μM) | 25 to 100 | +++ (activity was measured to be less than 2.0 μM) | 25 to 100
4 | Cc1cc(C(=O)N[C@@H]2CCC3(CCN(CCC(C)(C)C)CC3)c3ccccc32)nn1C [compound 216] | + (activity was measured to be greater than 5.0 μM) | < 25 | +++ (activity was measured to be less than 2.0 μM) | 25 to 100 | ++ (activity was measured to be from 2.0 μM to 5.0 μM) | 25 to 100 | ++ (activity was measured to be from 2.0 μM to 5.0 μM) | 25 to 100
5 | CC(C)(C)CCN1CCC2(CC[C@@H](NC(=O)C3CCOCC3)c3ccc(F)cc32)CC1 [compound 217] | + (activity was measured to be greater than 5.0 μM) | < 25 | +++ (activity was measured to be less than 2.0 μM) | 25 to 100 | + (activity was measured to be greater than 5.0 μM) | < 25 | ++ (activity was measured to be from 2.0 μM to 5.0 μM) | 25 to 100
6 | CC(=O)N(C)[C@H]1CCC2(CCN(CCC(C)(C)C)CC2)c2cc(F)ccc21 [compound 218] | + (activity was measured to be greater than 5.0 μM) | < 25 | +++ (activity was measured to be less than 2.0 μM) | 25 to 100 | +++ (activity was measured to be less than 2.0 μM) | < 25 | +++ (activity was measured to be less than 2.0 μM) | 25 to 100
7 | Cn1cncc1C(=O)N[C@H]1CCC2(CCN(CCC(C)(C)C)CC2)c2ccccc21 [compound 219] | + (activity was measured to be greater than 5.0 μM) | < 25 | +++ (activity was measured to be less than 2.0 μM) | 25 to 100 | +++ (activity was measured to be less than 2.0 μM) | 25 to 100 | +++ (activity was measured to be less than 2.0 μM) | 25 to 100
8 | CC(C)(C)CCN1CCC2(CC[C@@H](NC(=O)C3CCCO3)c3ccccc32)CC1 (stereo partly drawn) [compound 220] | + (activity was measured to be greater than 5.0 μM) | < 25 | +++ (activity was measured to be less than 2.0 μM) | 25 to 100 | + (activity was measured to be greater than 5.0 μM) | < 25 | + (activity was measured to be greater than 5.0 μM) | < 25
9 | CCN(C(=O)CCOC)[C@H]1CCC2(CCN(CCC(C)(C)C)CC2)c2ccccc21 [compound 221] | + (activity was measured to be greater than 5.0 μM) | < 25 | +++ (activity was measured to be less than 2.0 μM) | 25 to 100 | + (activity was measured to be greater than 5.0 μM) | < 25 | ++ (activity was measured to be from 2.0 μM to 5.0 μM) | 25 to 100
10 | CC(C)(C)CCN1CCC2(CC[C@H](N3CCCCC3=O)c3ccc(F)cc32)CC1 [compound 222] | + (activity was measured to be greater than 5.0 μM) | < 25 | +++ (activity was measured to be less than 2.0 μM) | 25 to 100 | + (activity was measured to be greater than 5.0 μM) | < 25 | +++ (activity was measured to be less than 2.0 μM) | 25 to 100
11 | CCN(C(=O)Cc1ccncc1)[C@H]1CCC2(CCN(CCC(C)(C)C)CC2)c2ccccc21 [compound 223] | + (activity was measured to be greater than 5.0 μM) | < 25 | +++ (activity was measured to be less than 2.0 μM) | 25 to 100 | + (activity was measured to be greater than 5.0 μM) | < 25 | + (activity was measured to be greater than 5.0 μM) | 25 to 100
12 | CC(C)(C)CCN1CCC2(CC[C@H](NC(=O)C(F)(F)F)c3ccccc32)CC1 [compound 224] | + (activity was measured to be greater than 5.0 μM) | < 25 | +++ (activity was measured to be less than 2.0 μM) | 25 to 100 | + (activity was measured to be greater than 5.0 μM) | < 25 | +++ (activity was measured to be less than 2.0 μM) | 25 to 100
13 | CC(C)(C)CCN1CCC2(CC1)C[C@H](NC(=O)C1CCCC1)c1ccccc12 [compound 225] | + (activity was measured to be greater than 5.0 μM) | < 25 | + (activity was measured to be greater than 5.0 μM) | < 25 | + (activity was measured to be greater than 5.0 μM) | < 25 | + (activity was measured to be greater than 5.0 μM) | < 25
14 | CCN(CC)C(=O)CN1CCC2(CC1)C[C@H](NC(C)=O)c1ccccc12 [compound 226] | + (activity was measured to be greater than 5.0 μM) | < 25 | + (activity was measured to be greater than 5.0 μM) | < 25 | + (activity was measured to be greater than 5.0 μM) | < 25 | + (activity was measured to be greater than 5.0 μM) | < 25
15 | CCCC(=O)N[C@H]1CC2(CCN(CCC(C)C)CC2)c2ccccc21 [compound 227] | + (activity was measured to be greater than 5.0 μM) | < 25 | + (activity was measured to be greater than 5.0 μM) | < 25 | + (activity was measured to be greater than 5.0 μM) | < 25 | + (activity was measured to be greater than 5.0 μM) | < 25
